Legend:
Puccinia recondita = experiment: in vivo preventive test on Puccinia recondita (brown rust on wheat); conditions: Puccinia recondita, 264 h; 500 ppm of active ingredient; young wheat plants sprayed, inoculated after 24 hours, evaluated 11 days after the inoculation; read-out: efficacy
Protocol: Example: in vivo preventive test on Puccinia recondita (brown rust on wheat)
(§1) The active ingredients were made soluble and homogenized in a mixture of Dimethyl sulfoxide/Acetone/ /Tween® 80 and then diluted in water to the desired concentration.
The young plants of wheat were treated by spraying the active ingredient prepared as described above. Control plants were treated only with an aqueous solution of Acetone/Dimethyl sulfoxide/ Tween® 80.
After 24 hours, the plants were contaminated by spraying the leaves with an aqueous suspension of Puccinia recondita spores. The contaminated wheat plants were incubated for 24 hours at 20°C and at 100% relative humidity and then for 10 days at 20°C and at 70-80% relative humidity.
The test was evaluated 11 days after the inoculation. 0% means an efficacy which corresponds to that of the control plants while an efficacy of 100% means that no disease was observed.

Phakospora pachyrhizi = experiment: in vivo preventive test on Phakospora pachyrhizi (soybean rust); conditions: Glycine max, 288 h; 500 ppm of active ingredient; young soybean plants sprayed, inoculated after 24 hours, evaluated 12 days after the inoculation; read-out: efficacy
Protocol: Example: in vivo preventive test on Phakospora pachyrhizi (soybean rust)
as §1
The young plants of soybean were treated by spraying the active ingredient prepared as described above. Control plants were treated only with an aqueous solution of Acetone/Dimethyl sulfoxide/ […].
After 24 hours, the plants were contaminated by spraying the leaves with an aqueous suspension of Phakosporapachyrhizi spores. The contaminated soybean plants were incubated for 24 hours at 24°C and at 100% relative humidity and then for 11 days at 24°C and at 70-80% relative humidity.
The test was evaluated 12 days after the inoculation. 0% means an efficacy which corresponds to that of the control plants while an efficacy of 100% means that no disease was observed.

[1] = LogP measurement by HPLC on reversed phase columns (EEC directive 79/831 Annex V.A8); format: physicochemical; conditions: reversed phase HPLC column
Protocol: If more than one LogP value is available within the same method, all the values are given and separated by "+".
Lambda-max-values were determined using UV-spectra from 200 nm to 400 nm and the peak values of the chromatographic signals.

Sphaerotheca fuliginea = experiment: in vivo preventive test on Sphaerotheca fuliginea (powdery mildew on cucurbits); conditions: Podosphaera fuliginea, 192 h; 500 ppm of active ingredient; young gherkin plants sprayed, inoculated after 24 hours, evaluated 8 days after the inoculation; read-out: efficacy
Protocol: Example: in vivo preventive test on Sphaerotheca fuliginea (powdery mildew on cucurbits)
as §1
The young plants of gherkin were treated by spraying the active ingredient prepared as described above. Control plants were treated only with an aqueous solution of Acetone/Dimethyl sulfoxide/ […].
After 24 hours, the plants were contaminated by spraying the leaves with an aqueous suspension of Sphaerotheca fuliginea spores. The contaminated gherkin plants were incubated for 8 days at 20°C and at 70-80% relative humidity.
The test was evaluated 8 days after the inoculation. 0% means an efficacy which corresponds to that of the control plants while an efficacy of 100% means that no disease was observed.

[2] = method [a]: LC-UV, acidic range, 0.1% formic acid in water and acetonitrile as eluent
[3] = method [b]: LC-UV, neutral range, 0.001 molar ammonium acetate solution in water and acetonitrile as eluent

Structure (SMILES)	pest or weed control at 500 ppm (Puccinia recondita) [%]	pest or weed control at 500 ppm (Phakospora pachyrhizi) [%]	chromatographic logP [1, 2]	chromatographic logP [1, 3]	pest or weed control at 500 ppm (Sphaerotheca fuliginea) [%]
CCSc1nccc(Oc2cc(C)c(N=CN(C)CC)cc2Br)n1 [I.016, N'-[5-bromo-4-(2-ethylsulfanylpyrimidin-4-yl)oxy-2-methylphenyl]-N-ethyl-N-methylmethan-imidamide]	≥ 70	≥ 70	1.46	4.44	≥ 70
CCN(C)C=Nc1cc(C)c(Oc2ccnc(SC(C)C)n2)cc1C [I.028, N'-[2,5-dimethyl-4-(2-propan-2-ylsulfanylpyrimidin-4-yl)oxyphenyl]-N-ethyl-N-methylmethan-imidamide]	≥ 70	≥ 70	1.45	4.54	≥ 70
CCN(C)C=Nc1cc(Br)c(Oc2cc(SC(C)(C)C)nc(C)n2)cc1C [I.018, N'-[5-bromo-4-(6-tert-butylsulfanyl-2-methylpyrimidin-4-yl)oxy-2-methylphenyl]-N-ethyl-N-methylmethanimidamide]	≥ 70	≥ 70	2.11	5.99	≥ 70
CCN(C)C=Nc1cc(Br)c(Oc2ccnc(SC(C)C)n2)cc1C [I.014, N'-[5-bromo-2-methyl-4-(2-propan-2-ylsulfanylpyrimidin-4-yl)oxyphenyl]-N-ethyl-N-methyl-methanimidamide]	≥ 70	≥ 70	1.6	4.78	≥ 70
CCC(C)Sc1cc(Oc2cc(C)c(N=CN(C)CC)cc2C)nc(C)n1 (stereo not drawn) [I.024, N'-[4-(6-butan-2-ylsulfanyl-2-methylpyrimidin-4-yl)oxy-2,5-dimethylphenyl]-N-ethyl-N-methyl-methanimidamide]	≥ 70	≥ 70	2.02	5.98	≥ 70
CCN(C)C=Nc1cc(C)c(Oc2ccnc(SCC3CC3)n2)cc1C [I.040, N'-[4-[2-(cyclopropylmethylsulfanyl)pyrimidin-4-yl]oxy-2,5-dimethylphenyl]-N-ethyl-N-methylmethanimidamide]	≥ 70	≥ 70	1.55	–	≥ 70
CCN(C)C=Nc1cc(Br)c(Oc2ccnc(SCC(F)(F)F)n2)cc1C [I.005, N'-[5-bromo-2-methyl-4-[2-(2,2,2-trifluoroethylsulfanyl)pyrimidin-4-yl]oxyphenyl]-N-ethyl-N-methylmethanimidamide]	≥ 70	≥ 70	1.58	4.66	≥ 70
CCN(C)C=Nc1cc(Br)c(Oc2ccnc(C(F)(F)F)n2)cc1C [I.017, N'-[5-bromo-2-methyl-4-[2-(trifluoromethyl)pyrimidin-4-yl]oxyphenyl]-N-ethyl-N-methyl-methanimidamide]	≥ 70	≥ 70	1.32	4.08	≥ 70
CCN(C)C=Nc1cc(C)c(Oc2cc(C)nc(SC)n2)cc1C [I.033, N'-[2,5-dimethyl-4-(6-methyl-2-methylsulfanylpyrimidin-4-yl)oxyphenyl]-N-ethyl-N-methyl-methanimidamide]	≥ 70	≥ 70	1.34	4.16	≥ 70
CCCSc1nc(C)cc(Oc2cc(C)c(N=CN(C)CC)cc2C)n1 [I.020, N'-[2,5-dimethyl-4-(6-methyl-2-propylsulfanylpyrimidin-4-yl)oxyphenyl]-N-ethyl-N-methyl-methanimidamide]	≥ 70	≥ 70	1.69	–	≥ 70

From patent EP3708565A1, “PYRIMIDINYLOXYPHENYLAMIDINES AND THE USE THEREOF AS FUNGICIDES” (Bayer AG, priority 2020, dated 2020)
